Measured values: patent US5776892A, “Anti-inflammatory peptides” (Curative Health Services, Inc., priority 1994, dated 1998)
Where “and” joins values, the source holds several entries; their conditions need not be identical. Identical values can stand only once. No end group written: not given here.

Tested on: arachidonic acid induced inflammation in mouse ear
Test: Mouse ear model, arachidonic acid (AA) induced inflammation, ear thickness
Assay type: in vivo
Conditions: for % Reduction of Ear Swelling / Ear Thickness: Table I, sc Alzet minipump
Experimental: The anti-inflammatory properties of CT-112 (SEQ. ID NO: 1) were assessed using a standardized assay for anti-inflammatory activity, i.e., the mouse ear model in which arachidonic acid (AA) is used to induce an inflammatory reaction (Young et al., 1984, J. Invest. Dermatol. 82:367-371; Doherty, et al., 1988, J. Invest. Dermatol. 91:298-302).
Female mice (C57BL/6UAF, Charles River Breeding Laboratories, approximately 15-18 g) were obtained and acclimated for 2 weeks prior to use. The animals were approximately 14 weeks old at the start of the study.
To prepare minipumps for implantation, CT-112 (SEQ. ID NO: 1) was dissolved in PBS. The material was loaded into Alzet minipumps set to deliver 0.05 (5 animals), 0.1 (10 animals), 1 (10 animals), or 2.5 (5 animals) mg of CT-112 (SEQ. ID NO: 1) per animal per day. Minipumps for implantation into control animals contained only PBS. As a positive control, one set of 10 mice received 100 mg/kg of phenidone, a potent 5-lipoxygenase inhibitor which acts as an anti-inflammatory agent, 15 min prior to challenge with AA.
For subcutaneous implantation of minipumps, animals were anesthetized with Ketamine/Xylazine. The Ketamine (Aveco Lot #440140) was injected at 80 mg/kg and the Xylazine (Rugby Laboratories Lot #26040-B) at 16 mg/kg and the Alzet pumps were implanted subcutaneously in the dorsothoracic area. Animals were allowed to recover and then housed and given food and water ad libitum for 5 days.
On the sixth day following pump implantation, 0.01 ml of AA was applied to the inner and outer surfaces of the right ear by means of an automatic microliter pipette. One hr following AA application, the mice were sacrificed and ear thickness was measured with a Mitutoyo No. 7300 Gauge Caliper. The left ears were also measured as an internal control.
Mice were implanted with Alzet mini-pumps set to deliver 60 mg/kg/day for either 7, 3, or 1 days. A separate group of 5 mice received 3 intraperitoneal injections of CT-112 (60 mg/kg/injection) at 24, 1 and 0.25 hr prior to AA challenge. CT-112 (SEQ. ID NO: 1) was prepared for injection by dissolving the compound in Dulbecco's PBS to give a final CT-112 (SEQ. ID NO: 1) concentration of 5 mg/ml. The control mice were implanted with Alzet minipumps that delivered PBS for 7 days. The AA challenge was the same as described supra in Example 7.
Administration of CT-112 (SEQ. ID NO: 1) (60 mg/kg/injection) via multiple intraperitoneal injections was performed at the following times prior to AA challenge:
In addition, the effect of a single administration of CT-112 (SEQ. ID NO: 1) (60 mg/kg) by intraperitoneal injection was performed at either 1 or 3 hr prior to AA challenge. Control mice had Alzet minipumps implanted to deliver PBS for 7 days prior to AA challenge. The AA challenge was the same as described supra in Example 7. The results of the multiple dosing regimens and the 1 hr and 3 hr single dosing regimens were compared to the anti-inflammatory activity of CT-112 (SEQ. ID NO: 1) delivered via Alzet minipump set to deliver 60 mg/kg/day for 7 days using 5 animals per treatment.
In a separate experiment, the effect of multiple intraperitoneal injections of CT-112 (SEQ. ID NO: 1) at either 6, 3, 1 and 0.25 hr, or 16, 3, 1 and 0.25 hr prior to AA challenge was assessed. The results of both multi-dosing regimens were compared to both phenidone (100 mg/kg administered 15 min prior to AA challenge) and CT-112 (SEQ. ID NO: 1) administered via Alzet mini-pump (60 mg/kg/day for 7 days). For this latter study, the number of animals receiving the single injection of CT-112 (SEQ. ID NO: 1) was increased from 5 to 10.
Administration to mice of CT-112 (SEQ. ID NO: 1) (60 mg/kg/injection) via multiple subcutaneous injections prior to AA challenge was performed at:
In addition, other mice received only a single subcutaneous injection of CT-112 (SEQ. ID NO: 1) (60 mg/kg) at either 3 or 1 hr prior to AA challenge. […]

[1] = Table III, 1-day pump, 60 mg/kg/day
[2] = Table III, 3-day pump, 60 mg/kg/day
[3] = Table III, 7-day pump, 60 mg/kg/day
[4] = Table III, ip 60 mg/kg/injection at 24, 1, 0.25 hr prior to AA
[5] = Table IV, 7-day pump, 60 mg/kg/day
[6] = Table IV, ip 60 mg/kg/injection at 1, 0.25 hr prior to AA
[7] = Table IV, ip 60 mg/kg/injection at 3, 1, 0.25 hr prior to AA
[8] = Table IV, ip 60 mg/kg/injection at 6, 3, 1, 0.25 hr prior to AA
[9] = Table IV, single ip 60 mg/kg 3 hr prior to AA
[10] = Table V, 7-day pump, 60 mg/kg/day
[11] = Table V, ip at 6, 3, 1, 0.25 hr prior to AA
[12] = Table V, ip at 16, 3, 1, 0.25 hr prior to AA
[13] = Table VI, 7-day pump, 60 mg/kg/day
[14] = Table VI, sc 60 mg/kg/injection at 1, 0.25 hr prior to AA
[15] = Table VI, sc 60 mg/kg/injection at 3, 1, 0.25 hr prior to AA
[16] = Table VI, sc 60 mg/kg/injection at 6, 3, 1, 0.25 hr prior to AA
[17] = Table VI, single sc 60 mg/kg 1 hr prior to AA
[18] = Table VI, single sc 60 mg/kg 3 hr prior to AA
[19] = Table VII, 3 day pump, 60 mg/kg/day
[20] = Table VII, single ip 3 hr prior to AA
[21] = Table VII, single sc 0.25 hr prior to AA
[22] = Table VII, single sc 1 hr prior to AA
[23] = Table VII, single sc 3 hr prior to AA
[24] = Table VII, single sc 6 hr prior to AA
[25] = Table VIII, 3 day pump, 60 mg/kg/day
[26] = Table VIII, po 200 mg/kg/gavage at 1, 0.25 hr prior to AA
[27] = Table VIII, po 200 mg/kg/gavage at 6, 3, 1, 0.25 hr prior to AA
[28] = Table VIII, single po 200 mg/kg 1 hr prior to AA
[29] = Table VIII, single po 200 mg/kg 3 hr prior to AA
[30] = Table XI, 60 mg/kg/day minipump, 3 days

With “TTSQVRPR [CT-112, octapeptide derived from platelet factor 4]” the “% Reduction of Ear Swelling” value (0.05 mg/animal/day) was 43.1%, the “Ear Thickness” value (0.05 mg/animal/day, AA on day 6) was 0.01577 ± 0.00155 in and the “% Reduction of Ear Swelling” value (0.1 mg/animal/day) was 43.1%. The “Ear Thickness” value (0.1 mg/animal/day) was 0.01577 ± 0.00191 in, the “% Reduction of Ear Swelling” value (1.0 mg/animal/day) was 89.0% and the “Ear Thickness” value (1.0 mg/animal/day) was 0.01128 ± 0.00291 in. The “% Reduction of Ear Swelling” value (2.5 mg/animal/day) was 95.6%, the “Ear Thickness” value (2.5 mg/animal/day) was 0.0106 ± 0.00175 in and the “% Inhibition of Inflammation” value [1] was 112%. For the same sequence, the “Thickness Difference (Left-Right)” value [1] was -0.00074 ± 0.00119 in, the “% Inhibition of Inflammation” value [2] was 119% and the “Thickness Difference (Left-Right)” value [2] was -0.00115 ± 0.00058 in. The “% Inhibition of Inflammation” value [3] was 108%, the “Thickness Difference (Left-Right)” value [3] was -0.00051 ± 0.00116 in and the “% Inhibition of Inflammation” value [4] was 62%. For the same sequence, the “Thickness Difference (Left-Right)” value [4] was 0.00226 ± 0.00124 in, the “% Inhibition of Inflammation” value [5] was 94% and 93.9% and the “Thickness Difference (Left-Right)” value [5] was 0.00033 ± 0.00065 in. The “% Inhibition of Inflammation” value [6] was 64.4%, the “Thickness Difference (Left-Right)” value [6] was 0.00192 ± 0.00148 in and the “% Inhibition of Inflammation” value [7] was 73.8%. For the same sequence, the “Thickness Difference (Left-Right)” value [7] was 0.00141 ± 0.00138 in, the “% Inhibition of Inflammation” value [8] was 73.2% and the “Thickness Difference (Left-Right)” value [8] was 0.00144 ± 0.00126 in. For the same sequence, the “Thickness Difference (Left-Right)” value (Table IV, single ip 60 mg/kg 1 hr prior to AA) was 0.00308 ± 0.00189 in, the “% Inhibition of Inflammation” value (Table IV, single ip 60 mg/kg 1 hr prior to AA, 60 mg/kg) was 43% and 42.9% and the “% Inhibition of Inflammation” value [9] was 78.5%. For the same sequence, the “Thickness Difference (Left-Right)” value [9] was 0.00116 ± 0.001 in, the “% Inhibition of Inflammation” value [10] was 100.5% and the “Thickness Difference (Left-Right)” value [10] was -0.00003 ± 0.0012 in. For the same sequence, the “% Inhibition of Inflammation” value [11] was 61.4%, the “Thickness Difference (Left-Right)” value [11] was 0.00249 ± 0.0017 in and the “% Inhibition of Inflammation” value [12] was 56.3%. For the same sequence, the “Thickness Difference (Left-Right)” value [12] was 0.00283 ± 0.00218 in, the “% Inhibition of Inflammation” value [13] was 87% and 86.5% and the “Thickness Difference (Left-Right)” value [13] was 0.00083 ± 0.00084 in. For the same sequence, the “% Inhibition of Inflammation” value [14] was 68.4%, the “Thickness Difference (Left-Right)” value [14] was 0.00195 ± 0.00131 in and the “% Inhibition of Inflammation” value [15] was 68.7%. For the same sequence, the “Thickness Difference (Left-Right)” value [15] was 0.00193 ± 0.0007 in, the “% Inhibition of Inflammation” value [16] was 76.2% and the “Thickness Difference (Left-Right)” value [16] was 0.00147 ± 0.00041 in. The “% Inhibition of Inflammation” value [17] was 71.8%, the “Thickness Difference (Left-Right)” value [17] was 0.00174 ± 0.00128 in and the “% Inhibition of Inflammation” value [18] was 65.5%. For the same sequence, the “Thickness Difference (Left-Right)” value [18] was 0.00213 ± 0.00089 in, the “% Inhibition of Inflammation” value [19] was 67.0% and the “Thickness Difference (Left-Right)” value [19] was 0.00127 ± 0.00128 in. For the same sequence, the “% Inhibition of Inflammation” value [20] was 37.2%, the “Thickness Difference (Left-Right)” value [20] was 0.00242 ± 0.00187 in and the “% Inhibition of Inflammation” value [21] was 34.7%. The “Thickness Difference (Left-Right)” value [21] was 0.00252 ± 0.00128 in, the “% Inhibition of Inflammation” value [22] was 44.5% and the “Thickness Difference (Left-Right)” value [22] was 0.00214 ± 0.00122 in. For the same sequence, the “% Inhibition of Inflammation” value [23] was 36.9%, the “Thickness Difference (Left-Right)” value [23] was 0.00243 ± 0.00107 in and the “% Inhibition of Inflammation” value [24] was 69.6%. The “Thickness Difference (Left-Right)” value [24] was 0.00117 ± 0.00066 in, the “% Inhibition of Inflammation” value [25] was 88% and 88.4% and the “Thickness Difference (Left-Right)” value [25] was 0.00058 ± 0.00086 in. The “% Inhibition of Inflammation” value [26] was 51.9%, the “Thickness Difference (Left-Right)” value [26] was 0.00241 ± 0.00124 in and the “Thickness Difference (Left-Right)” value (Table VIII, po 200 mg/kg/gavage at 3, 1, 0.25 hr prior to AA) was 0.0028 ± 0.00114 in. The “% Inhibition of Inflammation” value (Table VIII, po 200 mg/kg/gavage at 3, 1, 0.25 hr prior to AA, 200 mg/kg) was 44% and 44.1%, the “% Inhibition of Inflammation” value [27] was 73.3% and the “Thickness Difference (Left-Right)” value [27] was 0.00134 ± 0.00257 in. For the same sequence, the “% Inhibition of Inflammation” value [28] was 72.3%, the “Thickness Difference (Left-Right)” value [28] was 0.00139 ± 0.00122 in and the “% Inhibition of Inflammation” value [29] was 93.8%. The “Thickness Difference (Left-Right)” value [29] was 0.00031 ± 0.00198 in, the “% Inhibition of Inflammation” value (Table XI, 6 mg/kg/day minipump, 3 days) was 40.8% and the “Thickness Difference (Left-Right)” value (Table XI, 6 mg/kg/day minipump, AA 3 days after implantation) was 0.00381 ± 0.00066 in. The “% Inhibition of Inflammation” value [30] was 85.2%, the “Thickness Difference (Left-Right)” value [30] was 0.00095 ± 0.00064 in and the “Thickness Difference (Left-Right)” value (Table XIII, 60 mg/kg/day via Alzet pump for 24 hr) was 0.00132 ± 0.00086 in. The “Thickness Difference (Left-Right)” value (Table XIV, 60 mg/kg/day via Alzet pump for 24 hr) was 0.00134 ± 0.00044 in, the “Thickness Difference (Left-Right)” value (Table XV, 60 mg/kg/day via Alzet pump for 24 hr) was 0.00154 ± 0.00092 in and the “% Inhibition” value (Table XVI, single 6 mg/kg sc 4 hr prior to AA, ear thickness 1 hr post-challenge) was 64.9%. For the same sequence, the duration of activity (after single subcutaneous injection) was “greater than 6 hr”, the “inhibition of the inflammatory process” value (ip 60 mg/kg/injection, all multi-dosing regimens and the 3 hr single dosing regimen) was “approximately 70%” and the reduction in inflammation (multiple ip injections at either 6, 3, 1, 0.25 hr or 16, 3, 1, 0.25 hr prior to AA) was 56-61%. The “inhibition of the inflammatory process” value (oral 200 mg/kg/gavage, all multi- and single-dosing regimens except 3, 1, 0.25 hr) was 52-94%.
